According to patent US6861432B2, “Piperazine derivatives that destabilize androgen receptors” (Schering Aktiengesellschaft, priority 2001, dated 2005):

Key:
MaTu cells = experiment: Model 3: Proliferation of non-prostate cells, MaTu; assay type: cell-based, human; settings: 10 μM, 3-day treatment; percent of cell growth of solvent control
Protocol: (§1) To examine the growth-inhibiting action of test substances in cells that are not of prostatic origin, MaTu cells, MaTu/Adr cells, HaCaT cells and A431 cells were treated with test substances, whereby
(§2) Depending on the cell line, 1000-4000 cells/well were grown in RPMI 1640 medium (A431; MaTu and MaTu/Adr) or DMEM/HAM'SF12 medium (HaCaT) without phenol red with 2 mmol of L-glutamine and 10% CCS, and after a 24-hour incubation, they were treated with various concentrations of test substances diluted in culture medium. After a 3-day treatment period, the number of cells was determined by crystal violet assay, as in Model 2. The solvent control contained 0.1% ethanol.
(§3) The substances were tested at a concentration of 10 μM, and the data correspond to the proportion, in percent, of the cell growth of the solvent control. It turns out that the test substances exerted no inhibitory action on the four different cell lines or, in individual cases, only a slight inhibitory action.

A431 cells = experiment: Model 3: Proliferation of non-prostate cells, A431; assay type: cell-based, human; settings: 10 μM, 3-day treatment, percent of cell growth of solvent control
Protocol: as §1, §2, §3

HaCaT cells = experiment: Model 3: Proliferation of non-prostate cells, HaCaT; assay type: cell-based, human; settings: 10 μM, 3-day treatment, percent of cell growth of solvent control
Protocol: as §1, §2, §3

MaTu/Adr cells = experiment: Model 3: Proliferation of non-prostate cells, MaTu/Adr; assay type: cell-based, human; settings: 10 μM, 3-day treatment, percent of cell growth of solvent control
Protocol: as §1, §2, §3

CWR22 prostate cancers = experiment: Model 5: Growth of human prostate cancer xenografts in vivo, CWR22; settings: hairless mice with testosterone pellets, 2 × daily s.c. 30 mg/kg, FIG. 2
Description: (§4) In this invention, the action of Example 117 according to the invention: 4-[2,5-dihydro-3-methyl-4-[4-[4-(methylsulfonyl)piperazin-1-yl]butyl]-2,5-dioxo-1H-pyrrol-1-yl]-2-(trifluoromethyl)benzonitrile on the tumor growth in vivo was studied by means of mouse-xenograft modules, in which the compound according to the invention was continuously administered subcutaneously.
(§5) The CWR22 tumor model [M. A. Wainstein, F. He, D. Robinson, H. J. Kung, S. Schwartz, J. M. Giaconia, N. L. Edgehouse, T. P. Pretlow, D. R. Bodner, E. D. Kursh, Cancer Res. 1994, 1; 54(23), 6049-52] is a hormone-dependent human prostate carcinoma model. The tumor model was established and further propagated by “scrial passaging” of prostate cancer tissue, which was removed during an OP in immunodeficient hairless mice. The androgen-dependent LNCaP prostate cancer model was also established from a patient tumor. This tumor model grows both in cell culture and as a xenotransplant on immunodeficient mice (Culig, Hoffman Brit. J. Cancer, 1999, 242-251). For therapy tests, 6-week-old male hairless mice (NMRI mice, M&B, Bornholdtgard, Denmark) were supplemented with testosterone pellets (12.5 mg, 90-day release; IRA, Sarasota, Fla.). Either LNCaP cells (1.5×10^6 cells) or small CWR22 tumor fragments (2×2 mm) were implanted subcutaneously in the left flank of the animals. After the tumors reached a size of 20-25 mm^2, the treatment with the invention substance was begun. [M. A. Wainstein, F. He, D. Robinson, H. J. Kung, S. Schwartz, J. M. Giaconia, N. L. Edgehouse, T. P. Pretlow, D. R. Bodner, E. D. Kursch, Cancer Res. 1994, 1; 54(23), 6049-52].

LNCaP prostate cancers = experiment: Model 5: Growth of human prostate cancer xenografts in vivo, LNCaP; settings: hairless mice with testosterone pellets, 2 × daily s.c. 30 mg/kg, FIG. 1
Description: as §4, §5

androgen receptor = biological target: T1, androgen receptor (Homo sapiens, UniProt P10275, T878A); experiment: cell-based; settings: LNCaP, 48 h
T1 construct: 2*10^6 LNCaP cells in 6 ml of RPMI 1640 without phenol red are grown; endogenous in cells; host or cells: LNCaP (human prostate cell line)
T1 sequence (P10275 1-920 T878A): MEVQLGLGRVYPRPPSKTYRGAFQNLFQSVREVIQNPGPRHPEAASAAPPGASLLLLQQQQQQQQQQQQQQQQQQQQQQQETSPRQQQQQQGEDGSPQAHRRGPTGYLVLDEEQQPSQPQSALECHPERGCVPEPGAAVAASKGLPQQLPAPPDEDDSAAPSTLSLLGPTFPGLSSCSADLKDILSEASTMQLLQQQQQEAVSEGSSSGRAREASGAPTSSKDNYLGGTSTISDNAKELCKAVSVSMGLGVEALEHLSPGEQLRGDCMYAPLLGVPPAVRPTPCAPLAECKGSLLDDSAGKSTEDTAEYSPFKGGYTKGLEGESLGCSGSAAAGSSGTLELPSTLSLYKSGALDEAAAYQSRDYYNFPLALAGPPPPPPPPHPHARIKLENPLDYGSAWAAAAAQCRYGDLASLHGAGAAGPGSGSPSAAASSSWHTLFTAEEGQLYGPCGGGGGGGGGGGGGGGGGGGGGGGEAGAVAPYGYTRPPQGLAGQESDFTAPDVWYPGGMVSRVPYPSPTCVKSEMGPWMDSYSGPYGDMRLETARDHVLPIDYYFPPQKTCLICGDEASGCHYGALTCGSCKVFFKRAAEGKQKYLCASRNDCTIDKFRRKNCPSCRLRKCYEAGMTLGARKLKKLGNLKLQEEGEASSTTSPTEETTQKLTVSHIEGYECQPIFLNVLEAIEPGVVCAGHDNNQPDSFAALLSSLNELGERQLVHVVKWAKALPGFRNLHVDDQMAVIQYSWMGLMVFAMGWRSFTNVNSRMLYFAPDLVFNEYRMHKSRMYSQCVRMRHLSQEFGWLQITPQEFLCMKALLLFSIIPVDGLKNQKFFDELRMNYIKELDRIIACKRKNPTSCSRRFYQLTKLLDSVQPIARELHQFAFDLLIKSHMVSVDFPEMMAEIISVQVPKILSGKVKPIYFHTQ

LNCaP cells = experiment: Model 2: Inhibition of the proliferation of LNCaP cells (crystal violet assay; antagonism with 0.1 nM R1881, agonism without); assay type: cell-based, human
seminal vesicles = experiment: Model 4: Antiandrogenic action on testosterone-stimulated growth of accessory sexual glands of castrated mice; assay type: in vivo; settings: testosterone propionate 0.03 mg/mouse, test substance 2 × 30 mg/kg s.c., 7 days, CPA 30 mg/kg s.c., bicalutamide from preceding tests
Protocol: The function and the size of accessory sexual glands (prostate and seminal vesicles) depend on androgens. In castrated animals, a growth of these (organs is induced by androgen administration. The simultaneous treatment with antiandrogens inhibits this growth, depending on the dose.
To examine the test substances, the mice were castrated. The treatment with testosterone propionate (0.03 mg/mouse) and the test substances (formulated 2×daily 30 mg/kg s.c. in benzyl benzoate-castor oil (10:90)) was on the same day. The treatment was carried out over 7 days and at the end of the test, the weights of the seminal vesicles and prostates were determined. The inhibition, in percent, of the seminal vesicle growth was calculated relative to the control groups (with and without testosterone). As a reference substance, cyproterone acetate (30 mg/kg s.c.) was used.

[1] = listed as invention substance, 30 mg/kg
[2] = listed as substance B, 30 mg/kg

IC50 (LNCaP cells; Homo sapiens, LNCaP proliferation in the presence of 0.1 nM R1881, 7-8 days, read-out: IC50 [10^−7 M]) | SMILES | Proliferation in the Cell Line MaTu (MaTu cells) | Proliferation in the Cell Line A431 (A431 cells) | Proliferation in the Cell Line HaCaT (HaCaT cells) | Proliferation in the Cell Line MaTu/Adr (MaTu/Adr cells) | growth inhibition of CWR22 prostate cancers (CWR22 prostate cancers; [1]) | growth inhibition of CWR22 prostate cancers (CWR22 prostate cancers; [2]) | growth inhibition of LNCaP prostate cancers (LNCaP prostate cancers; [1]) | growth inhibition of LNCaP prostate cancers (LNCaP prostate cancers; [2]) | remaining activity at 1 µM (androgen receptor; read-out: AR Content [%] At 1 μM) | remaining activity at 10 µM (androgen receptor; read-out: AR Content [%] At 10 μM) | Proliferation in the Cell Line A431 (A431 cells; listed as bicalutamide) | inhibition at 1 µM (LNCaP cells; Homo sapiens, LNCaP, LNCaP proliferation, 1 μM substance, compared to cell growth in the presence of 0.1 nM R1881) | % Inhibition at 1 μM (LNCaP cells; LNCaP proliferation, 1 μM substance, compared to cell growth in the presence of 0.1 nM R1881) | Proliferation in the Cell Line HaCaT (HaCaT cells; listed as bicalutamide) | Proliferation in the Cell Line MaTu/Adr (MaTu/Adr cells; listed as bicalutamide) | growth inhibition of CWR22 prostate cancers (CWR22 prostate cancers) | growth inhibition of LNCaP prostate cancers (LNCaP prostate cancers) | % Inhibition of the MSB Growth (seminal vesicles)
– | CC1=C(CCCCN2CCN(S(C)(=O)=O)CC2)C(=O)N(c2ccc(C#N)c(C(F)(F)F)c2)C1=O [Example 117, 4-[2,5-Dihydro-3-methyl-4-[4-[4-(methylsulfonyl)piperazin-1-yl]butyl]-2,5-dioxo-1H-pyrrol-1-yl]-2-(trifluoromethyl)benzonitrile] | 103 ± 10% | 100 ± 5% | 104 ± 6% | 94 ± 4% | considerable growth inhibition | superior in comparison to treatment with the antiandrogen bicalutamide | considerable growth inhibition | superior in comparison to treatment with the antiandrogen bicalutamide | 57% | 36% | – | – | – | – | – | – | – | –
380 nM | CC(O)(CS(=O)(=O)c1ccc(F)cc1)C(=O)Nc1ccc(C#N)c(C(F)(F)F)c1 (centres unmarked) [Bicalutamide, N-[4-cyano-3-(trifluoromethyl)phenyl]-3-[(4-fluorophenyl)sulfonyl]-2-hydroxy-2-methylpropanamide, reference compound] | 97 ± 3% | 89 ± 7% | 92 ± 3% | 84 ± 6% | – | – | – | – | – | – | slight inhibition | 85% | 84.6% | slight inhibition | slight inhibition | growth inhibition | growth inhibition | 86%
